Each structure is given as a SMILES string.

aldosterone synthase (CYP11B2), sequence (A0A2K5UPL9 1-503): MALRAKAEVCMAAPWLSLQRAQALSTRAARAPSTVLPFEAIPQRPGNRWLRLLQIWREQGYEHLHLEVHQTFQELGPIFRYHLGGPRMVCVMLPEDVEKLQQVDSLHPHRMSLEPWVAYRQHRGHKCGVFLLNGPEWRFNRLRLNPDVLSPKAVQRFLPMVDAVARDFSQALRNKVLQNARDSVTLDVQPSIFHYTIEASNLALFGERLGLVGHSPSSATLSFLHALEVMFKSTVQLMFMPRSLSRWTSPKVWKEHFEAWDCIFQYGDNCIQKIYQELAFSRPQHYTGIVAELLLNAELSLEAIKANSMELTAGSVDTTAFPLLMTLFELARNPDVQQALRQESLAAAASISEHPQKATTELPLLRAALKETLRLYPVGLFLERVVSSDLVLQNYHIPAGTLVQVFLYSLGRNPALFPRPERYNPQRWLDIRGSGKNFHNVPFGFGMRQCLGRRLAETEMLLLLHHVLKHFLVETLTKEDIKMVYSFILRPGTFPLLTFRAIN

In the test the target is aldosterone synthase (CYP11B2) (Macaca fascicularis, UniProt A0A2K5UPL9). Briefly: aldosterone synthase inhibition assay. Type of test: biochemical, cynomolgus monkey. The note with it: cynomolgus adrenal gland mitochondria, 2 μM corticosterone, aldosterone quantified by mass spectrometry. The method, boiled down:
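Cynomolgus adrenal mitochondria ([…]) used as CYP11B2 source with 2 μM corticosterone in 100 mM potassium phosphate pH 7.4, 1% DMSO; reaction started with 1 mM NADPH, run 60-90 min at 37° C. Aldosterone measured by mass spectrometry; IC50 from 4-parameter logistic fit, no-NADPH blank as 0%.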
Molecule `Cc1nnc2ccc(-c3cncc4c3COC3(CC3)C4O)cn12` (single isomer, unassigned) [Compound 91, 8-(3-methyl-[1,2,4]triazolo[4,3-a]pyridin-6-yl)spiro[1,4-dihydropyrano[4,3-c]pyridine-3,1′-cyclopropane]-4-ol] showed an IC50 of 220 nM.

`OC1COCc2c(-c3ccc4c(c3)OCCO4)cncc21` (single isomer, unassigned) [Compound 38, 8-(2,3-Dihydro-benzo[1,4]dioxin-6-yl)-3,4-dihydro-1H-pyrano[4,3-c]pyridin-4-ol] displayed an IC50 of 12 nM.

`OC1COCc2c(-c3ccc4ocnc4c3)cncc21` (single isomer, unassigned) [Compound 49, 8-Benzooxazol-5-yl-3,4-dihydro-1H-pyrano[4,3-c]pyridin-4-ol] displayed an IC50 of 55.7 nM.

In turn, `Cc1ncc2ccc(-c3cncc4c3COCC4O)cn12` (single isomer, unassigned) [Compound 86, 8-(3-Methyl-imidazo[1,5-a]pyridin-6-yl)-3,4-dihydro-1H-pyrano[4,3-c]pyridin-4-ol] displayed an IC50 of 494 nM.

Consider `Cn1ncc2ccc(-c3cncc4c3COCC4(C)O)cc21` (single isomer, unassigned) [Compound 170, 4-Methyl-8-(1-methyl-1H-indazol-6-yl)-3,4-dihydro-1H-pyrano[4,3-c]pyridin-4-ol], for which the IC50 worked out at 7.8 nM.

For the molecule `Cn1nc(C#N)c2ccc(-c3cncc4c3COCC4(C)O)cc21` (single isomer, unassigned) [Compound 178, 6-(4-Hydroxy-4-methyl-3,4-dihydro-1H-pyrano[4,3-c]pyridin-8-yl)-1-methyl-1H-indazole-3-carbonitrile], half-maximal inhibition (IC50) required 15 nM.

On to `OC1COCc2c(-c3ccn4ccnc4c3)cncc21` (single isomer, unassigned) [Compound 99, 8-Imidazo[1,2-a]pyridin-7-yl-3,4-dihydro-1H-pyrano[4,3-c]pyridin-4-ol], for which 5000 nM corresponded to half-maximal inhibition (IC50).

With `N#Cc1ccc(-c2cncc3c2COCC3O)cc1` (single isomer, unassigned) [Compound 6, 4-(4-Hydroxy-3,4-dihydro-1H-pyrano[4,3-c]pyridin-8-yl)-benzonitrile], it took 9.8 nM to reach half-maximal inhibition (IC50).

Regarding `OC1COCc2c(-c3cnc4[nH]ccc4c3)cncc21` (single isomer, unassigned) [Compound 27, 8-(1H-Pyrrolo[2,3-b]pyridin-5-yl)-3,4-dihydro-1H-pyrano[4,3-c]pyridin-4-ol], inhibition was half-maximal at 1300 nM (IC50).

Molecule `Cn1nc(C(F)(F)F)cc1-c1cncc2c1COCC2O` (single isomer, unassigned) [Compound 42, 8-(2-Methyl-5-trifluoromethyl-2H-pyrazol-3-yl)-3,4-dihydro-1H-pyrano[4,3-c]pyridin-4-ol] returned an IC50 of 367 nM.

Molecule `Cn1nc(C#N)c2ccc(-c3cncc4c3COCC4O)cc21` (single isomer, unassigned) [Compound 113, 6-(4-Hydroxy-3,4-dihydro-1H-pyrano[4,3-c]pyridin-8-yl)-1-methyl-1H-indazole-3-carbonitrile] yielded an IC50 of 14.5 nM.

For the molecule `CC1(O)CCOc2ccc(-c3cncc4c3COCC4O)cc21` (single isomer, unassigned) [Compound 137, 8-(4-Hydroxy-4-methyl-chroman-6-yl)-3,4-dihydro-1H-pyrano[4,3-c]pyridin-4-ol], the IC50 is 1870 nM.

In turn, `CCS(=O)(=O)NC1COCc2c(-c3ccc4c(c3)CCC4O)cncc21` (stereo not drawn) [Compound 184, Ethanesulfonic acid [8-(1-hydroxy-indan-5-yl)-3,4-dihydro-1H-pyrano[4,3-c]pyridin-4-yl]-amide] returned an IC50 of 124 nM.

In the case of `CCS(=O)(=O)NC1COCc2c(-c3ccc4[nH]nc(C)c4c3)cncc21` (single isomer, unassigned) [Compound 69, Ethanesulfonic acid [8-(3-methyl-1H-indazol-5-yl)-3,4-dihydro-1H-pyrano[4,3-c]pyridin-4-yl]-amide], the IC50 came out at 84.6 nM.

The molecule `CN1C(=O)Cc2cc(-c3cncc4c3COCC4O)ccc21` (single isomer, unassigned) [Compound 51, 5-(4-Hydroxy-3,4-dihydro-1H-pyrano[4,3-c]pyridin-8-yl)-1-methyl-1,3-dihydro-indol-2-one] had an IC50 of 24.2 nM.

`CC1(O)CCOc2ccc(-c3cncc4c3COCC4O)cc21` (single isomer, unassigned) [Compound 140, 8-(4-Hydroxy-4-methyl-chroman-6-yl)-3,4-dihydro-1H-pyrano[4,3-c]pyridin-4-ol]: 12000 nM corresponded to half-maximal inhibition (IC50).

As to `Cn1ncc2ccc(-c3cncc4c3COCC4(C)O)cc21` (single isomer, unassigned) [Compound 169, 4-Methyl-8-(1-methyl-1H-indazol-6-yl)-3,4-dihydro-1H-pyrano[4,3-c]pyridin-4-ol], the IC50 was 13.9 nM.

`Cc1ncc2ccc(-c3cncc4c3COC3(CC3)C4O)cn12` (single isomer, unassigned) [Compound 89, 8-(3-methylimidazo[1,5-a]pyridin-6-yl)spiro[1,4-dihydropyrano[4,3-c]pyridine-3,1′-cyclopropane]-4-ol]: 73 nM corresponded to half-maximal inhibition (IC50).

By IC50 is commonly meant the midpoint of a concentration-inhibition curve. Higher therefore signals weaker potency.

(Values after patent publication US9890171B2, “Aldosterone synthase inhibitors” (Boehringer Ingelheim International GmbH, priority 2014, dated 2018).)
